Test results as given in paper PMC10281575, “PfCRT mutations conferring piperaquine resistance in falciparum malaria shape the kinetics of quinoline drug binding and transport” (PLOS Pathogens, 2023).
Where a chain is given by its changes, count along the chain named. “And” between values parts separate entries of the source, which are not always exact repeats. Equal entries are not always repeated.

Key:
PfCRT^Dd2_F145I = target: T1, PfCRT^Dd2_F145I (Plasmodium falciparum, UniProt Q8IBZ9, A220S/F145I/I356T/K76T/M74I/N326S/N75E/Q271E/R371I); test: Competition plot (Vtotal versus proportion of PPQ in CQ/PPQ mixtures), PfCRT^Dd2_F145I; format: cell-based; conditions: for competition plot result (binding sites): CQ/PPQ mixtures, Vtotal dependent on P
T1 construct: expressed in transfected cells; host or cells: Xenopus laevis oocytes injected with in vitro transcribed RNA (pSP64T)
T1 sequence (Q8IBZ9 1-424 M74I/N75E/K76T/F145I/A220S/Q271E/N326S/I356T/R371I): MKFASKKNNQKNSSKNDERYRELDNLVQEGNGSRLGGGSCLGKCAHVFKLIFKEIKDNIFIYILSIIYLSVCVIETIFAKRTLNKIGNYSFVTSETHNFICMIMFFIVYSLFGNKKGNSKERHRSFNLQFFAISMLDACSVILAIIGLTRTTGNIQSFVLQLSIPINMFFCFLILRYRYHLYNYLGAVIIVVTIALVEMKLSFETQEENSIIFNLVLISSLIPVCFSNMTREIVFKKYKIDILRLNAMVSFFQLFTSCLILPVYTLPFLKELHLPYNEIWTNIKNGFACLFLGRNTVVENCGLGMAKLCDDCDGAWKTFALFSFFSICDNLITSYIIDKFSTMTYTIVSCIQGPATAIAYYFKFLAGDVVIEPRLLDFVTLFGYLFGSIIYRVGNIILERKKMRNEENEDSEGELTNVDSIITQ
Experimental: To test this hypothesis, we performed competition plot experiments, in which the enzyme or carrier is exposed to substrate mixtures that give the same transport rate for different substrates. The experiment is performed with substrate A labeled and then repeated with substrate B labeled. […] Similar results were found for PfCRT^Dd2_F145I.
Fig 3 Competition plot of the interaction of PfCRT^Dd2 (A) and PfCRT^Dd2_F145I (B) with CQ and PPQ. The competition plot tests whether two substrates bind to the same site or distinct sites on an enzyme or transporter. A competitive reaction would yield data points that lie on a horizontal line, whereas allosteric interactions would reveal a curved relationship. PfCRT-mediated drug uptake was measured from mixtures of radiolabeled CQ and PPQ that combined yielded an uptake close to saturation (Vtotal). Vtotal was subsequently analyzed as a function of the proportion of PPQ in the mixture (P). For more details see Materials and Methods. The mean ± SEM of at least 3 independent biological replicates are shown.
The competition plot was performed as described elsewhere. Briefly, a concentration of CQ and a concentration of PPQ were selected (using the parameters from Table 1), such that (i) the rate of PPQ transport was equivalent to the rate of CQ transport, and (ii) the transport rate for CQ (the less efficiently transported substrate) approached its Vmax. The resulting concentrations for PfCRT^Dd2 were [CQ]^max = 400 μM and [PPQ]^max = 23.1 μM. At these concentrations of CQ and PPQ, the expected uptake is 19.8 pmol h^-1 oocyte^-1. The resulting concentrations for PfCRT^Dd2_F145I were [CQ]^max = 400 μM and [PPQ]^max = 18.2 μM. At these concentrations of CQ and PPQ, the expected uptake is 18.2 pmol h^-1 oocyte^-1. A series of reaction buffers containing CQ and PPQ at concentrations [CQ] = (1—P) x [CQ]^max and [PPQ] = P x [PPQ]^max were assembled, where P is the proportion of PPQ in the mixture. […] These corresponded to values of P equal to 0, 0.25, 0.5, 0.75, 0.9 and 1. A plot of Vtotal as a function of P yielded the competition plots. If both substrates bind to the same site, then a constant Vtotal is expected across all P values (e.g. data lies on a horizontal line). If the substrates bind to different sites, and they inhibit each other’s transport, it is expected that the curve is concave with either a minimum or a maximum.

PfCRT^Dd2_G353V = target: T2, PfCRT^Dd2_G353V (Plasmodium falciparum, UniProt Q8IBZ9, A220S/G353V/I356T/K76T/M74I/N326S/N75E/Q271E/R371I); test: Verapamil inhibition of PfCRT-mediated CQ and PPQ transport in oocytes, PfCRT^Dd2_G353V; format: cell-based; conditions: individual replicates (S3 Fig)
T2 construct: expressed in transfected cells; host or cells: Xenopus laevis oocytes injected with in vitro transcribed RNA (pSP64T)
T2 sequence (Q8IBZ9 1-424 M74I/N75E/K76T/A220S/Q271E/N326S/G353V/I356T/R371I): T1 sequence (Q8IBZ9 1-424 M74I/N75E/K76T/F145I/A220S/Q271E/N326S/I356T/R371I) with I145F, G353V
Experimental: In all cases, the PfCRT-mediated CQ and PPQ transport was inhibited in the presence of 100 μM verapamil (S3 Fig).
Drug transport assays were performed as previously described. Briefly, measurements of radiolabeled drug uptake were made over 1 h, unless otherwise specified. […] Where specified, one or more unlabeled drugs were also present at the indicated concentrations. The direction of drug transport in the assays is from the extracellular medium (pH 6) into the oocyte cytosol (pH 7.2), which corresponds to the efflux of CQ or PPQ from the acidic digestive vacuole (pH 5.2) into the parasite cytosol (pH 7.2). The uptake assays were terminated by removing the oocytes from the reaction medium and washing them three times with 2 mL of ice-cold ND96 buffer. Each oocyte was transferred to a separate scintillation vial and lysed by the addition of 200 μL of a 5% SDS solution. The radioactivity in the sample was measured using a liquid scintillation analyser Tri-Carb 4910 TR (PerkinElmer). Water-injected oocytes were analyzed in parallel as a negative control. The buffer from each condition was measured in duplicate in parallel to each experiment to transform counts per minute into pmol of drug. Drug uptake attributable to PfCRT was determined by subtracting the background uptake from water-injected oocytes from that of PfCRT-expressing oocytes. In all cases, at least three independent experiments were performed on oocytes from different frogs, and for each condition in an experiment, measurements were made from 10 oocytes per treatment.
Supplementary file ppat.1011436.s006.tif: S3 Fig Verapamil inhibits PfCRT-mediated transport of CQ and PPQ. […] Left panels, data is shown as individual biological replicates (coloured symbols) overlaid onto bars representing the Mean ± S.E.M. (error bars). A one-tailed Student’s t-test was performed between untreated (no VP) and treated (+ 100 μM VP) samples, and the obtained p values are shown. Right panels, the uptake in VP-treated samples was divided by the uptake in their corresponding untreated pairs and subtracted from 100% to get the percentage of uptake inhibition mediated by the presence of 100 μM verapamil in the extracellular medium. Error bars are S.E. (TIF) Click here for additional data file.

[1] = CQ/PPQ mixture, P = 0.25, single replicates
[2] = CQ/PPQ mixture, P = 0.5, single replicates
[3] = CQ/PPQ mixture, P = 0.75, single replicates
[4] = CQ/PPQ mixture, P = 0.9, single replicates

Structure (SMILES) | PfCRTDd2_F145I-mediated CQ transport P = 0 (PfCRT^Dd2_F145I; CQ/PPQ mixture, P = 0, single replicates) | PfCRTDd2_F145I-mediated CQ transport P = 0.25 (PfCRT^Dd2_F145I; [1]) | PfCRTDd2_F145I-mediated CQ transport P = 0.5 (PfCRT^Dd2_F145I; [2]) | PfCRTDd2_F145I-mediated CQ transport P = 0.75 (PfCRT^Dd2_F145I; [3]) | PfCRTDd2_F145I-mediated CQ transport P = 0.9 (PfCRT^Dd2_F145I; [4]) | competition plot result (binding sites) (PfCRT^Dd2_F145I) | PfCRTDd2_G353V-mediated CQ transport (PfCRT^Dd2_G353V; 50 µM CQ + 100 µM VP) | PfCRTDd2_G353V-mediated CQ transport (PfCRT^Dd2_G353V; 50 µM CQ) | PfCRTDd2_F145I-mediated PPQ transport P = 0.25 (PfCRT^Dd2_F145I; [1]) | PfCRTDd2_F145I-mediated PPQ transport P = 0.5 (PfCRT^Dd2_F145I; [2]) | PfCRTDd2_F145I-mediated PPQ transport P = 0.75 (PfCRT^Dd2_F145I; [3]) | PfCRTDd2_F145I-mediated PPQ transport P = 0.9 (PfCRT^Dd2_F145I; [4]) | PfCRTDd2_F145I-mediated PPQ transport P = 1 (PfCRT^Dd2_F145I; CQ/PPQ mixture, P = 1, single replicates) | PfCRTDd2_G353V-mediated PPQ transport (PfCRT^Dd2_G353V; 50 µM PPQ + 100 µM VP) | PfCRTDd2_G353V-mediated PPQ transport (PfCRT^Dd2_G353V; 50 µM PPQ)
CCN(CC)CCCC(C)Nc1ccnc2cc(Cl)ccc12 (stereo not shown) [CQ, chloroquine] | 14.23 pmol oocyte-1 h-1 and 18.19 pmol oocyte-1 h-1 and 22.31 pmol oocyte-1 h-1 | 16.38 pmol oocyte-1 h-1 and 14.89 pmol oocyte-1 h-1 and 14.95 pmol oocyte-1 h-1 | 11.20 pmol oocyte-1 h-1 and 13.42 pmol oocyte-1 h-1 and 11.66 pmol oocyte-1 h-1 | 8.54 pmol oocyte-1 h-1 and 5.74 pmol oocyte-1 h-1 and 7.98 pmol oocyte-1 h-1 | 3.23 pmol oocyte-1 h-1 and 2.52 pmol oocyte-1 h-1 | occupy different domains | 3.530 pmol oocyte-1 h-1 and 3.520 pmol oocyte-1 h-1 and 2.870 pmol oocyte-1 h-1 and 2.520 pmol oocyte-1 h-1 and 3.380 pmol oocyte-1 h-1 | 4.740 pmol oocyte-1 h-1 and 5.010 pmol oocyte-1 h-1 and 2.880 pmol oocyte-1 h-1 and 3.920 pmol oocyte-1 h-1 and 4.760 pmol oocyte-1 h-1 |  |  |  |  |  |  | 
Clc1ccc2c(N3CCN(CCCN4CCN(c5ccnc6cc(Cl)ccc56)CC4)CC3)ccnc2c1 [PPQ, piperaquine] |  |  |  |  |  | occupy different domains |  |  | 3.27 pmol oocyte-1 h-1 and 3.77 pmol oocyte-1 h-1 and 3.82 pmol oocyte-1 h-1 | 7.53 pmol oocyte-1 h-1 and 7.99 pmol oocyte-1 h-1 and 8.13 pmol oocyte-1 h-1 | 12.62 pmol oocyte-1 h-1 and 13.41 pmol oocyte-1 h-1 and 10.66 pmol oocyte-1 h-1 | 15.10 pmol oocyte-1 h-1 and 16.36 pmol oocyte-1 h-1 and 16.00 pmol oocyte-1 h-1 | 16.57 pmol oocyte-1 h-1 and 18.61 pmol oocyte-1 h-1 and 20.05 pmol oocyte-1 h-1 | 18.21 pmol oocyte-1 h-1 and 25.90 pmol oocyte-1 h-1 and 37.78 pmol oocyte-1 h-1 and 29.33 pmol oocyte-1 h-1 and 30.34 pmol oocyte-1 h-1 | 29.38 pmol oocyte-1 h-1 and 45.38 pmol oocyte-1 h-1 and 21.36 pmol oocyte-1 h-1 and 40.00 pmol oocyte-1 h-1 and 56.34 pmol oocyte-1 h-1 and 56.46 pmol oocyte-1 h-1 and 95.52 pmol oocyte-1 h-1 and 62.83 pmol oocyte-1 h-1
